# How the values were obtained:
# Experiment in all cases: Radiometric kinase panel
# Type in all cases: biochemical
# [1] = biological target: T1, CDK1/CycA2 (Homo sapiens, UniProt P06493)
# T1 construct: either as full-length or enzymatically active fragments; purchased ProQinase GmbH (Reaction Biology)
# Method in brief: (§1)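 Activity was measured radiometrically from [gamma-33P]-ATP incorporation into substrate. The kinases were recombinant human GST- or His-tagged proteins, full-length or active fragments, expressed in Sf9 or E. coli. Compound in 10% DMSO was added before the enzyme/substrate mix, which started the reaction.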
# [2] = biological target: T2, PKCzeta (Homo sapiens, UniProt Q05513)
# T2 construct: either as full-length or enzymatically active fragments; purchased ProQinase GmbH (Reaction Biology)
# Method in brief: as §1
# [3] = biological target: T3, ERK2 (Homo sapiens, UniProt P28482)
# T3 construct: either as full-length or enzymatically active fragments; purchased ProQinase GmbH (Reaction Biology); host or cells: Sf9 insect cells or E. coli (not specified per kinase)
# Method in brief: as §1
# [4] = biological target: T4, EPHA4 (Homo sapiens, UniProt P54764)
# T4 construct: either as full-length or enzymatically active fragments; purchased ProQinase GmbH (Reaction Biology)
# Method in brief: as §1
# [5] = biological target: T5, CDC42BPB (Homo sapiens, UniProt Q9Y5S2)
# T5 construct: either as full-length or enzymatically active fragments; purchased ProQinase GmbH (Reaction Biology)
# Method in brief: as §1
# [6] = biological target: T6, EIF2AK2 (Homo sapiens, UniProt P19525)
# T6 construct: either as full-length or enzymatically active fragments; purchased ProQinase GmbH (Reaction Biology); host or cells: Sf9 insect cells or E. coli
# T6 sequence (P19525 whole entry, the tested form may be a part): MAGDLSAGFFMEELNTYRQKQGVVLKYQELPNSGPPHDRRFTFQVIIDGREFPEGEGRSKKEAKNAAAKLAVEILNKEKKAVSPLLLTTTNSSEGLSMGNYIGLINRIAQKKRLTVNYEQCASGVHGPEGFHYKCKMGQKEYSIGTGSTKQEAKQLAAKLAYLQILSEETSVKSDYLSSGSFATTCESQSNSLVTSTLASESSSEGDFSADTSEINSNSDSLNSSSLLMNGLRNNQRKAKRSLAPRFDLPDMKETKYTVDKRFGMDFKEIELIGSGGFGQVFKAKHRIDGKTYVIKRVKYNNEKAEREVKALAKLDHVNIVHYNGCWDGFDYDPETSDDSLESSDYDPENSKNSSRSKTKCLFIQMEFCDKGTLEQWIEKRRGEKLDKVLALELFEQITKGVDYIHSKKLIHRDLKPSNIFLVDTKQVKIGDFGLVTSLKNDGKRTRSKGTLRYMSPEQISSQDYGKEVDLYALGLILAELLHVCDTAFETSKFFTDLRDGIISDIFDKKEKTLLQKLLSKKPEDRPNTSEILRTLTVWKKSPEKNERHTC
# Method in brief: as §1
# [7] = biological target: T7, JNK3 (Homo sapiens, UniProt P53779)
# T7 construct: either as full-length or enzymatically active fragments; purchased ProQinase GmbH (Reaction Biology)
# Method in brief: as §1
# [8] = biological target: T8, HRI (Homo sapiens, UniProt Q9BQI3)
# T8 construct: either as full-length or enzymatically active fragments; purchased ProQinase GmbH (Reaction Biology)
# T8 sequence (Q9BQI3 whole entry, the tested form may be a part): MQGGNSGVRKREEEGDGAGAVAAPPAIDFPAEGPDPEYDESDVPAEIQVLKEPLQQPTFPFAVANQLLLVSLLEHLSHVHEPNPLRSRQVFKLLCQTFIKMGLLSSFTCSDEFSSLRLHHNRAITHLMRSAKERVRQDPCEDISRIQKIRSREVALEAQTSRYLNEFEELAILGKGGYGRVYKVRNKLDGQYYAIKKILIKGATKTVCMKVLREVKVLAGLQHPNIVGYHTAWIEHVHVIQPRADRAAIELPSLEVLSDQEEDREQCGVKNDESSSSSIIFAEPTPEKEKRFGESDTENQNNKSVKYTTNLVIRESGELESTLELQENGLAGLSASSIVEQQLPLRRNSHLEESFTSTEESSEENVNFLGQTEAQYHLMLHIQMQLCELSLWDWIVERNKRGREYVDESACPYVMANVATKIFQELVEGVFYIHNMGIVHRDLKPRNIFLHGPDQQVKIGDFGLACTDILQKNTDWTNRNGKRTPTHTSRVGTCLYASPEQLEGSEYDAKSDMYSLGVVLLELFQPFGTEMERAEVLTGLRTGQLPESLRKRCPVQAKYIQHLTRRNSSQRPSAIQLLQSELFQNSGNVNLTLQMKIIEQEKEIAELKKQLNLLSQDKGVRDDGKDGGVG
# Method in brief: as §1
# [9] = biological target: T9, MAP4K2 (Homo sapiens, UniProt Q12851)
# T9 construct: purchased ProQinase GmbH (Reaction Biology)
# T9 sequence (Q12851 whole entry): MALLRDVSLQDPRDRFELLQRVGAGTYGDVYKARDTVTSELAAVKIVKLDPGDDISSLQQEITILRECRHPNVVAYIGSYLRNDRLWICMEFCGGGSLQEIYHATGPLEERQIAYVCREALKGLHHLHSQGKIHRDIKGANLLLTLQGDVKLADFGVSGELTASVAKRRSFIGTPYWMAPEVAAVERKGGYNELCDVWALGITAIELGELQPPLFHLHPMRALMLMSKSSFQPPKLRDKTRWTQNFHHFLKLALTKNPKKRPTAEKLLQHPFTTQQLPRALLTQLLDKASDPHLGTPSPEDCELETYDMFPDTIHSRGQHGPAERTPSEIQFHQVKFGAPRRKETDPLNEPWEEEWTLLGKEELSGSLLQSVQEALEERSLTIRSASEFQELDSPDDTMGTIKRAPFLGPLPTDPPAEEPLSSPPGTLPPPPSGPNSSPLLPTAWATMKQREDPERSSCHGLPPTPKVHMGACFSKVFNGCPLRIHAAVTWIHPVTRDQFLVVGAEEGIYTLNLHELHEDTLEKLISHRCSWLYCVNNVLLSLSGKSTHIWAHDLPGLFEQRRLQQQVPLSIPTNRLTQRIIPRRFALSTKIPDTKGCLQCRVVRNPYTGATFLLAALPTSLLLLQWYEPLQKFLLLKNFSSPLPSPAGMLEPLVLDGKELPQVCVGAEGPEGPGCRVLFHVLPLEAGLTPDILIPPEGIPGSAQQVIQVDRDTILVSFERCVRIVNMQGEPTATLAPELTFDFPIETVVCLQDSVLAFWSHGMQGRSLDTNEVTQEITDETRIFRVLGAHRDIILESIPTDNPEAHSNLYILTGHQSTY
# Method in brief: as §1
# [10] = biological target: T10, CLK1 (Homo sapiens, UniProt P49759)
# T10 construct: either as full-length or enzymatically active fragments; purchased ProQinase GmbH (Reaction Biology)
# Method in brief: as §1
# [11] = biological target: T11, SNARK (Homo sapiens, UniProt Q9H093)
# T11 construct: purchased ProQinase GmbH (Reaction Biology)
# Method in brief: as §1
# [12] = biological target: T12, CSF1R (Homo sapiens, UniProt P07333)
# T12 construct: either as full-length or enzymatically active fragments; purchased ProQinase GmbH (Reaction Biology); host or cells: Sf9 insect cells or E. coli
# Method in brief: as §1
# [13] = biological target: T13, S6K (Homo sapiens, UniProt P23443)
# T13 construct: either as full-length or enzymatically active fragments; purchased ProQinase GmbH (Reaction Biology); host or cells: Sf9 insect cells or E. coli (not specified per kinase)
# Method in brief: as §1
# [14] = biological target: T14, AuroraB (Homo sapiens, UniProt Q96GD4)
# T14 construct: purchased ProQinase GmbH (Reaction Biology); host or cells: Sf9 insect cells or E. coli (not specified per kinase)
# Method in brief: as §1
# [15] = biological target: T15, RIPK5 (Homo sapiens, UniProt Q6XUX3)
# T15 construct: purchased ProQinase GmbH (Reaction Biology)
# Method in brief: as §1
# [16] = biological target: T16, MASTL (Homo sapiens, UniProt Q96GX5)
# T16 construct: either as full-length or enzymatically active fragments; purchased ProQinase GmbH (Reaction Biology); host or cells: Sf9 insect cells or E. coli (not specified per kinase)
# Method in brief: as §1
# [17] = biological target: T17, ABL1 (Homo sapiens, UniProt P00519)
# T17 construct: purchased ProQinase GmbH (Reaction Biology)
# Method in brief: as §1
# [18] = biological target: T18, PKMYT1 (Homo sapiens, UniProt Q99640)
# T18 construct: either as full-length or enzymatically active fragments; purchased ProQinase GmbH (Reaction Biology)
# Method in brief: as §1
# [19] = biological target: T19, EPHA7 (Homo sapiens, UniProt Q15375)
# T19 construct: either as full-length or enzymatically active fragments; purchased ProQinase GmbH (Reaction Biology)
# Method in brief: as §1
# [20] = biological target: T20, DMPK (Homo sapiens, UniProt Q09013)
# T20 construct: either as full-length or enzymatically active fragments; purchased ProQinase GmbH (Reaction Biology); host or cells: Sf9 insect cells or E. coli
# Method in brief: as §1
# [21] = biological target: T21, TAOK3 (Homo sapiens, UniProt Q9H2K8)
# T21 construct: either as full-length or enzymatically active fragments; purchased ProQinase GmbH (Reaction Biology)
# Method in brief: as §1
# [22] = biological target: T22, BUB1B (Homo sapiens, UniProt O60566)
# T22 construct: either as full-length or enzymatically active fragments; purchased ProQinase GmbH (Reaction Biology); host or cells: Sf9 insect cells or E. coli
# Method in brief: as §1
# [23] = biological target: T23, FGFR4 (Homo sapiens, UniProt P22455)
# T23 construct: either as full-length or enzymatically active fragments; purchased ProQinase GmbH (Reaction Biology)
# Method in brief: as §1
# [24] = biological target: T24, NEK1 (Homo sapiens, UniProt Q96PY6)
# T24 construct: purchased ProQinase GmbH (Reaction Biology)
# Method in brief: as §1
# [25] = biological target: T25, ALK (Homo sapiens, UniProt Q9UM73)
# T25 construct: either as full-length or enzymatically active fragments; purchased ProQinase GmbH (Reaction Biology)
# Method in brief: as §1
# [26] = biological target: T26, IRAK1 (Homo sapiens, UniProt P51617)
# T26 construct: either as full-length or enzymatically active fragments; purchased ProQinase GmbH (Reaction Biology)
# Method in brief: as §1
# [27] = biological target: T27, MELK (Homo sapiens, UniProt Q14680)
# T27 construct: purchased ProQinase GmbH (Reaction Biology); host or cells: Sf9 insect cells or E. coli (not specified per kinase)
# Method in brief: as §1
# [28] = biological target: T28, EPHB1 (Homo sapiens, UniProt P54762)
# T28 construct: either as full-length or enzymatically active fragments; purchased ProQinase GmbH (Reaction Biology)
# T28 sequence (P54762 18-984): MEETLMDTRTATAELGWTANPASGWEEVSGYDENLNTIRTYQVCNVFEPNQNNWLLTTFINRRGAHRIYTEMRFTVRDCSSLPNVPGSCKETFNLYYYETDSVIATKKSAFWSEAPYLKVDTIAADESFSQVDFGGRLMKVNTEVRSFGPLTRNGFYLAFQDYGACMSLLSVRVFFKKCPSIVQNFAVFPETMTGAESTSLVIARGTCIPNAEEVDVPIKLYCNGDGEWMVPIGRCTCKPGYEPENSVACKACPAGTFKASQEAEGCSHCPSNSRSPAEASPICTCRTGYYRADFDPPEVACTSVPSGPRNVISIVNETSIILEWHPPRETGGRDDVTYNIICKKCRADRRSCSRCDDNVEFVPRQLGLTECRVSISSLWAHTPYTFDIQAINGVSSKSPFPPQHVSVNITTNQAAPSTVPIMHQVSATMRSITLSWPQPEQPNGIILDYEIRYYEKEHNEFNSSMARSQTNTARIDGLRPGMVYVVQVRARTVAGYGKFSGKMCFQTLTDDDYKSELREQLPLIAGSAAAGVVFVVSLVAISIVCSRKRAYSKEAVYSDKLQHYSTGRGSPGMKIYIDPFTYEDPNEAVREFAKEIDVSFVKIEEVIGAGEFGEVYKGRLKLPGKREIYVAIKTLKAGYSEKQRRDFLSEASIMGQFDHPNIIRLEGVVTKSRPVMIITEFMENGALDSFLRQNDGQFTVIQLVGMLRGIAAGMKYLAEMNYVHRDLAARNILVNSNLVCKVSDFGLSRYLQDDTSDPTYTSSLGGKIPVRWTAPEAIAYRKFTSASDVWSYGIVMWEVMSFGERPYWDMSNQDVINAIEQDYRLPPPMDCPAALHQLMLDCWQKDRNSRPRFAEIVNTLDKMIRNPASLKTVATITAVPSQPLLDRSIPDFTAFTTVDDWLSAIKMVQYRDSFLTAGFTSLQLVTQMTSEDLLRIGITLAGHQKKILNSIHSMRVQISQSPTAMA
# Method in brief: as §1
# [29] = biological target: T29, CDK5/p35NCK (Homo sapiens, UniProt Q00535)
# T29 construct: either as full-length or enzymatically active fragments; purchased ProQinase GmbH (Reaction Biology)
# T29 sequence (Q00535 whole entry, the tested form may be a part): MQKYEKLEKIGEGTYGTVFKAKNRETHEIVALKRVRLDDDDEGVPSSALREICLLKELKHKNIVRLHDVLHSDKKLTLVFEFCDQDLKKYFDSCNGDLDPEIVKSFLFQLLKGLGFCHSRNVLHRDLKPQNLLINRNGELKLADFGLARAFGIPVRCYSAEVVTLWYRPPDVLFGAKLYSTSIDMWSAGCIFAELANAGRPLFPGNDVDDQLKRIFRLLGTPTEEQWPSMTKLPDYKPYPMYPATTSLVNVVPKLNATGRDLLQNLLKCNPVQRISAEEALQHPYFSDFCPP
# T29 sequence (Q15078 whole entry partner, the tested form may be a part): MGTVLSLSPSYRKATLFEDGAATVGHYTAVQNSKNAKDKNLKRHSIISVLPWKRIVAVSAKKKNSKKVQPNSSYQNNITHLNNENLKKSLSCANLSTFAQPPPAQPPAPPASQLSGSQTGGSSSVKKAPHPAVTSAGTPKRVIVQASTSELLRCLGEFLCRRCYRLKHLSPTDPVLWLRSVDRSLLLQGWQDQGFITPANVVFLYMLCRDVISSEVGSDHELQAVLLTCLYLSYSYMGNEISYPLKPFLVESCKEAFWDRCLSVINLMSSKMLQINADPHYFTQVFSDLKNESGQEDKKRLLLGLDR
# Method in brief: as §1
# [30] = biological target: T30, PAK7 (Homo sapiens, UniProt Q9P286)
# T30 construct: either as full-length or enzymatically active fragments; purchased ProQinase GmbH (Reaction Biology); host or cells: Sf9 insect cells or E. coli
# Method in brief: as §1
# [31] = biological target: T31, GRK6 (Homo sapiens, UniProt P43250)
# T31 construct: purchased ProQinase GmbH (Reaction Biology)
# T31 sequence (P43250 whole entry): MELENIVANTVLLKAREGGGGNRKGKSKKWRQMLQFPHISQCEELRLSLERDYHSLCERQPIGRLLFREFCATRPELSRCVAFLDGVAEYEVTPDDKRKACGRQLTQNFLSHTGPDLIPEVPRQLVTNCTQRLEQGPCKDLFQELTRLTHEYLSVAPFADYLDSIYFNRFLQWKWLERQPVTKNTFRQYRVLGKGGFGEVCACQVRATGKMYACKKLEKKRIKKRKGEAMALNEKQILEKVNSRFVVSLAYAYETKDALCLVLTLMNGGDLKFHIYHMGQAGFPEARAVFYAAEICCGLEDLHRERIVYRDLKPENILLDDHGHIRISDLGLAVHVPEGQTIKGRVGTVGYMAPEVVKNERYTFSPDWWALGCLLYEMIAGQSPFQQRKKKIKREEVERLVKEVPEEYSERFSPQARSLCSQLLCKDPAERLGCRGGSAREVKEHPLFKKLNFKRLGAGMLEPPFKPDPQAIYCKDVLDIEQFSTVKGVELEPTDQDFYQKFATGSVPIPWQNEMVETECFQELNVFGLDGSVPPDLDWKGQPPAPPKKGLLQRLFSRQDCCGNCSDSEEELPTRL
# Method in brief: as §1
# T1 sequence (P06493 whole entry, the tested form may be a part): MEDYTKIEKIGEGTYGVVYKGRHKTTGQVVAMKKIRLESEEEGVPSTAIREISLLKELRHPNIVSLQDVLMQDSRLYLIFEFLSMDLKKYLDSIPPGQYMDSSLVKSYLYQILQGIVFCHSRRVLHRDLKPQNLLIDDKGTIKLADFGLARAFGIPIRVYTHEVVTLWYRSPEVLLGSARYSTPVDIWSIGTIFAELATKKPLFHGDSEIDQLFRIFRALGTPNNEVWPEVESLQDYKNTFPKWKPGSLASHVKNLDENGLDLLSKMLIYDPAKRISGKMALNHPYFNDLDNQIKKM
# T1 sequence (P20248 whole entry partner, the tested form may be a part): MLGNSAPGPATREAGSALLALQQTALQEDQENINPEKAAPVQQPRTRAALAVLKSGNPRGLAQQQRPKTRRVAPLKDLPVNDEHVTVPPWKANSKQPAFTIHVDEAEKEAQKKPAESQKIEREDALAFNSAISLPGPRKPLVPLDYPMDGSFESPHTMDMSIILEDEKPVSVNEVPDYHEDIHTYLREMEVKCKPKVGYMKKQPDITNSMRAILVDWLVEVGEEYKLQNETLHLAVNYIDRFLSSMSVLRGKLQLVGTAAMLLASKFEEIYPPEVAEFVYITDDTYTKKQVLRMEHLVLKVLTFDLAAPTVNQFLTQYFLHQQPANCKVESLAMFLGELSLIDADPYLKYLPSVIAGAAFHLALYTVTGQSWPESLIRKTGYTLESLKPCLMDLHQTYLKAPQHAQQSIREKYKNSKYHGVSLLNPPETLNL
structure (smiles),measurement,setting,value
"C=CC(=O)Nc1ccc(C(=O)N2CC[C@@H](Nc3ncc(C#N)cn3)C2)cc1 [Compound 4, (R)-N-(4-(3-((5-cyanopyrimidin-2-yl)amino)pyrrolidine-1-carbonyl)phenyl)acrylamide]",inhibition at 1 µM,[1],17%
same,inhibition at 1 µM,[2],-3%
same,inhibition at 1 µM,[3],9%
same,inhibition at 1 µM,[4],2%
same,inhibition at 1 µM,[5],7%
same,inhibition at 1 µM,[6],15%
same,inhibition at 1 µM,[7],-4%
same,inhibition at 1 µM,[8],-8%
same,inhibition at 1 µM,[9],-1%
same,inhibition at 1 µM,[10],-3%
same,inhibition at 1 µM,[11],0%
same,inhibition at 1 µM,[12],14%
same,inhibition at 1 µM,[13],9%
same,inhibition at 1 µM,[14],1%
same,inhibition at 1 µM,[15],0%
same,inhibition at 1 µM,[16],11%
same,inhibition at 1 µM,[17],-1%
same,inhibition at 1 µM,[18],5%
same,inhibition at 1 µM,[19],-3%
same,inhibition at 1 µM,[20],11%
same,inhibition at 1 µM,[21],6%
same,inhibition at 1 µM,[22],13%
same,inhibition at 1 µM,[23],2%
same,inhibition at 1 µM,[24],0%
same,inhibition at 1 µM,[25],8%
same,inhibition at 1 µM,[26],2%
same,inhibition at 1 µM,[27],1%
same,inhibition at 1 µM,[28],-3%
same,inhibition at 1 µM,[29],23%
same,inhibition at 1 µM,[30],12%
same,inhibition at 1 µM,[31],0%
